Laboratory results as given in patent US20250210128A1, “COMPUTER-IMPLEMENTED DESIGN OF PEPTIDE:RECEPTOR SIGNALING COMPLEXES FOR ENHANCED CHEMOTAXIS” (Ecole Polytechnique Federale de Lausanne (EPFL), priority 2022, published 2025).

System: primary human T cells
Assay: Boyden chamber migration assay of T cells transduced with CXCR4 variants
Type: cell-based
Settings: 100 nM wild-type CXCL12 full-length chemokine
Procedure: T cells transduced and selected for CXCR4 variant expression from 3-6 donors were stained with 1 uM Vybrant DiO cell-labeling solution (Thermo, ref. V22886) in serum-free RPMI 1640+GlutaMax. 40,000 cells in 75 uL were seeded in each well of 96-well Boyden chambers with 5.0 μm pores (Corning, ref. 3388)^42. Reservoirs were filled with 200 uL serum-free RPMI 1640+GlutaMax or supplemented with 100 nM chemokine. The bottom of the attractant reservoir was imaged for migrated cells over the course of 8 hours with a Cytation 5 BioSpa (Biotek) at 37° C. with 5% CO2. Fluorescent spots were counted over time and compared to the no-chemokine control to calculate the migration index (#migrated cells towards attractant/#migrated cells towards no-attractant). The peak migration index was averaged between 3 technical replicates for each transduced donor per attractant concentration were plotted.

Substance: WT CXCR4: wild-type human CXCR4 (SEQ ID NO: 1; with N-terminal 3xHA-tag SEQ ID NO: 2)
- migration (fold-migration over no-chemoattractant control): around 1.5 fold
